Assay results from paper PMC2846458 (Nature medicine, 2008).
Changes are numbered by the printed parent chain.

What was measured:
[1] = tested on: TGF-β signaling; assay: Immunoblot of TGF-β signaling in PASMCs; format: cell-based; details: Mus musculus, PASMC, read-out: IC50 for TGF-β signaling
[2] = target: T1, ALK2^R206H (Homo sapiens, UniProt Q04771, R206H); assay: Id1 promoter activity; format: cell-based
T1 sequence (Q04771 21-509 R206H): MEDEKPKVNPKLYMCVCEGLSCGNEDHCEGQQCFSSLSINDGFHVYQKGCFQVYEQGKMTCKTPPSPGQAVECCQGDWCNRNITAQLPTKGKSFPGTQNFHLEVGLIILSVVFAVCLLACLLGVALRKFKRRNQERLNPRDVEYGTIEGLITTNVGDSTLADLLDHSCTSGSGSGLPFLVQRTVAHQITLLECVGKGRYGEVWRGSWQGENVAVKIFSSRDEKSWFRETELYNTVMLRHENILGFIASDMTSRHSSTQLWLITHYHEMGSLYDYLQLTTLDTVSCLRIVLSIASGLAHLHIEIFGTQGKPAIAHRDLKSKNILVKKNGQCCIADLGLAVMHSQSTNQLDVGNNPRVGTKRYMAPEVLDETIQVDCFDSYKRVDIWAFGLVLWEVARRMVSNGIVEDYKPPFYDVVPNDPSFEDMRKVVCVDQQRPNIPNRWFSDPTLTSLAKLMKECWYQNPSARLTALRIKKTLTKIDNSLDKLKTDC

[3] = target: T2, ALK2^Q207D (Homo sapiens, UniProt Q04771, Q207D); assay: Id1 promoter activity; format: cell-based
T2 sequence (Q04771 21-509 Q207D): T1 sequence (Q04771 21-509 R206H) with H186R, Q187D

[4] = tested on: C2C12 cells; assay: BMP4-induced alkaline phosphatase activity; format: cell-based; details: 100 nM, BMP4 10 ng ml^-1, even when administered 12 h after BMP stimulation
[5] = tested on: Ad.Cre-injected conditional caALK2–transgenic mice; assay: Ectopic ossification in Ad.Cre-injected conditional caALK2-transgenic mice; format: in vivo, mouse
[6] = Tolerability of treatment in mice
[7] = 3 mg kg^-1 i.p. every 12 h, lesions attenuated in the remainder

## c1ccc2c(-c3cnn4cc(-c5ccc(N6CCNCC6)cc5)cnc34)ccnc2c1 [LDN-193189, 4-[6-(4-piperazin-1-ylphenyl)pyrazolo[1,5-a]pyrimidin-3-yl]quinoline]
[1]
  IC50: ≥ 1000 nM
[2]
  effect on transcriptional activity induced by ALK2^R206H: blocked the transcriptional activity
[3]
  effect on transcriptional activity induced by ALK2^Q207D: blocked the transcriptional activity
[4]
  effect on induction of alkaline phosphatase activity by BMP4: inhibited the induction of alkaline phosphatase activity
[5]; 3 mg kg^-1 i.p. every 12 h
  endochondral bone in hindlimbs (histology): substantially less endochondral bone
[5]; 3 mg kg^-1 i.p. every 12 h, P11
  phosphorylated Smad1/5/8 and Runx2 staining in left gastrocnemius: diminished
[5]; 3 mg kg^-1 i.p. every 12 h, P15 and P30, versus vehicle
  passive range of motion in the ankle joint: significant rescue of function
[5]; [7]
  fraction of mice in which ectopic bone was prevented at P30: approximately two-thirds
  fraction of mice in which ectopic bone was prevented at P60: one-third
[5]; 3 mg kg^-1 i.p. every 12 h after Ad.Cre on P7
  radiographic lesions at P15: prevented radiographic lesions at P15 in all mice examined
[6]; 3 mg kg^-1 i.p. every 12 h, up to P60
  fractures, osteopenia, skeletal abnormalities: without inducing fractures, osteopenia or skeletal abnormalities

## C[C@@H]1C[C@H]2[C@@H]3CCC4=CC(=O)C=C[C@]4(C)[C@@]3(F)[C@@H](O)C[C@]2(C)[C@@]1(O)C(=O)CO [dexamethasone, reference compound]
[5]; 10 mg kg^-1 d^-1 i.p. starting 1 d after Ad.Cre at P7, versus vehicle
  ectopic calcifications and immobility at P30: markedly reduced
[6]; wild-type or mutant mice, during drug administration
  effect on weight and growth: severely impaired weight gain
